In patent US20230365554A1, “SUBSTITUTED PYRROLO-PYRIDINONE DERIVATIVES AND THERAPEUTIC USES THEREOF” (The Broad Institute, Inc., priority 2020, published 2023):

The compounds below were run against human CSNK1D (Homo sapiens (Human), UniProt P48730) (assay: CSNK1D assay (ADP-Glo, 1 μM ATP)). Details: median, Table 2, read-out: CSNK1D IC50 [mol/l] (median).
Format: biochemical
Outline: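 GST-tagged full-length human CSNK1D (baculovirus/insect cell; typically about 0.5 ng/μL) preincubated with compound 15 min, then reacted 30 min at 22 °C with 1 μM ATP and 30 μM biotinylated peptide (final) in HEPES pH 7.5 buffer. ADP quantified by ADP-Glo luminescence; data normalised to no-inhibitor and no-enzyme controls.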

Chain of human CSNK1D (P48730 whole entry): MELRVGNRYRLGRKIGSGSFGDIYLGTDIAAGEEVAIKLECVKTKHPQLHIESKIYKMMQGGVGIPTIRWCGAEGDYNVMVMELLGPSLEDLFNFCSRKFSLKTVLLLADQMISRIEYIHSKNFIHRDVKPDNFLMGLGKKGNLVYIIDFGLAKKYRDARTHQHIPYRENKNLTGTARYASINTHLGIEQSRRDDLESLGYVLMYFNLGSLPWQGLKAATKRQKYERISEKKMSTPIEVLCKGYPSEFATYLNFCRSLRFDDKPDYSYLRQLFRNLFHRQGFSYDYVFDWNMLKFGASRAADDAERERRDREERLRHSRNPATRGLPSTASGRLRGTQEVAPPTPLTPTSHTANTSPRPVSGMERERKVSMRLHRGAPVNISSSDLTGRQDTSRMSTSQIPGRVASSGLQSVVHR

SMILES | IC50
Cc1cn(C)c(=O)c2c(Nc3ccccc3)c(-c3ccnc(NC(=O)C(C)c4ccc(F)cc4)c3)[nH]c12 (single isomer, unassigned) [Example 41, N-[4-(3-anilino-5,7-dimethyl-4-oxo-4,5-dihydro-1H-pyrrolo[3,2-c]pyridin-2-yl)pyridin-2-yl]-2-(4-fluorophenyl)propanamide] | 88 nM
CN1CC(CC(F)F)c2[nH]c(-c3ccnc(NC(=O)Cc4ccc(F)cc4)c3)c(Nc3ccccc3)c2C1=O (single isomer, unassigned) [Example 43, N-{4-[3-anilino-7-(2,2-difluoroethyl)-5-methyl-4-oxo-4,5,6,7-tetrahydro-1H-pyrrolo[3,2-c]pyridin-2-yl]pyridin-2-yl}-2-(4-fluorophenyl)acetamide] | 4.3 nM
CN1CC(CC(F)F)c2[nH]c(-c3ccnc(NC(=O)Cc4ccc(F)cc4)c3)c(Nc3ccccc3)c2C1=O (single isomer, unassigned) [Example 44, N-{4-[3-anilino-7-(2,2-difluoroethyl)-5-methyl-4-oxo-4,5,6,7-tetrahydro-1H-pyrrolo[3,2-c]pyridin-2-yl]pyridin-2-yl}-2-(4-fluorophenyl)acetamide] | 5.9 nM
CN1CC(CC(F)(F)F)c2[nH]c(-c3ccnc(NC(=O)Cc4ccc(F)cc4)c3)c(Nc3cscn3)c2C1=O (single isomer, unassigned) [Example 47, 2-(4-fluorophenyl)-N-{4-[(7R or S)-5-methyl-4-oxo-3-(1,3-thiazol-4-ylamino)-7-(2,2,2-trifluoroethyl)-4,5,6,7-tetrahydro-1H-pyrrolo[3,2-c]pyridin-2-yl]pyridin-2-yl}acetamide] | 8.4 nM
CN1CC(CC(F)(F)F)c2[nH]c(-c3ccnc(NC(=O)Cc4ccc(F)cc4)c3)c(Nc3cscn3)c2C1=O (single isomer, unassigned) [Example 48, 2-(4-fluorophenyl)-N-{4-[(7R or S)-5-methyl-4-oxo-3-(1,3-thiazol-4-ylamino)-7-(2,2,2-trifluoroethyl)-4,5,6,7-tetrahydro-1H-pyrrolo[3,2-c]pyridin-2-yl]pyridin-2-yl}acetamide] | 32 nM
CN1CC(CC2CC2)c2[nH]c(-c3ccnc(NC(=O)Cc4ccc(F)cc4)c3)c(Nc3cscn3)c2C1=O (single isomer, unassigned) [Example 50, N-{4-[(7R or S)-7-(cyclopropylmethyl)-5-methyl-4-oxo-3-(1,3-thiazol-4-ylamino)-4,5,6,7-tetrahydro-1H-pyrrolo[3,2-c]pyridin-2-yl]pyridin-2-yl}-2-(4-fluorophenyl)acetamide] | 9.9 nM
CN1CC(CC2CC2)c2[nH]c(-c3ccnc(NC(=O)Cc4ccc(F)cc4)c3)c(Nc3cscn3)c2C1=O (single isomer, unassigned) [Example 51, N-{4-[(7R or S)-7-(cyclopropylmethyl)-5-methyl-4-oxo-3-(1,3-thiazol-4-ylamino)-4,5,6,7-tetrahydro-1H-pyrrolo[3,2-c]pyridin-2-yl]pyridin-2-yl}-2-(4-fluorophenyl)acetamide] | 57 nM
CN1CC(CC(F)(F)F)c2[nH]c(-c3ccnc(NC(=O)C(CC(F)F)c4ccc(F)cc4)c3)c(Nc3cscn3)c2C1=O (single isomer, unassigned) [Example 53, (2R or S)-4,4-difluoro-2-(4-fluorophenyl)-N-{4-[(7R or S)-5-methyl-4-oxo-3-[(1,3-thiazol-4-yl)amino]-7-(2,2,2-trifluoroethyl)-4,5,6,7-tetrahydro-1H-pyrrolo[3,2-c]pyridin-2-yl]pyridin-2-yl}butanamide] | 35 nM
CN1CC(CC(F)(F)F)c2[nH]c(-c3ccnc(NC(=O)C(CC(F)F)c4ccc(F)cc4)c3)c(Nc3cscn3)c2C1=O (single isomer, unassigned) [Example 54, (2R or S)-4,4-difluoro-2-(4-fluorophenyl)-N-{4-[(7R or S)-5-methyl-4-oxo-3-[(1,3-thiazol-4-yl)amino]-7-(2,2,2-trifluoroethyl)-4,5,6,7-tetrahydro-1H-pyrrolo[3,2-c]pyridin-2-yl]pyridin-2-yl}butanamide] | 4 nM
CN1CC(CC(F)(F)F)c2[nH]c(-c3ccnc(NC(=O)C(CC(F)F)c4ccc(F)cc4)c3)c(Nc3cscn3)c2C1=O (single isomer, unassigned) [Example 55, (2R or S)-4,4-difluoro-2-(4-fluorophenyl)-N-{4-[(7R or S)-5-methyl-4-oxo-3-[(1,3-thiazol-4-yl)amino]-7-(2,2,2-trifluoroethyl)-4,5,6,7-tetrahydro-1H-pyrrolo[3,2-c]pyridin-2-yl]pyridin-2-yl}butanamide] | 110 nM
CN1CC(CC(F)(F)F)c2[nH]c(-c3ccnc(NC(=O)C(CC(F)F)c4ccc(F)cc4)c3)c(Nc3cscn3)c2C1=O (single isomer, unassigned) [Example 56, (2R or S)-4,4-difluoro-2-(4-fluorophenyl)-N-{4-[(7R or S)-5-methyl-4-oxo-3-[(1,3-thiazol-4-yl)amino]-7-(2,2,2-trifluoroethyl)-4,5,6,7-tetrahydro-1H-pyrrolo[3,2-c]pyridin-2-yl]pyridin-2-yl}butanamide] | 13 nM
CC1CN(C)C(=O)c2c1[nH]c(-c1ccnc(NC(=O)Cc3ccc(F)cc3)c1)c2Nc1ccccc1 (single isomer, unassigned; (+)) [Example 8, (+)-N-{4-[3-anilino-5,7-dimethyl-4-oxo-4,5,6,7-tetrahydro-1H-pyrrolo[3,2-c]pyridin-2-yl]pyridin-2-yl}-2-(4-fluorophenyl)acetamide] | 26 nM
O=C1N[C@@H]2CCC[C@@H]2c2[nH]c(-c3ccnc(NC(=O)C(CC(F)F)c4ccc(F)cc4)c3)c(Nc3ccccc3)c21 (single isomer, unassigned; (+)) [Example 22, (+)-(2R or S)—N-{4-[cis-3-anilino-4-oxo-1,4,5,5a,6,7,8,8a-octahydrocyclopenta[b]pyrrolo[2,3-d]pyridin-2-yl]pyridin-2-yl}-4,4-difluoro-2-(4-fluorophenyl)butanamide] | 6.3 nM
O=C1N[C@@H]2CCC[C@@H]2c2[nH]c(-c3ccnc(NC(=O)C(CC(F)F)c4ccc(F)cc4)c3)c(Nc3ccccc3)c21 (single isomer, unassigned; (+)) [Example 25, (+)-(2R or S)—N-{4-[cis-3-anilino-4-oxo-1,4,5,5a,6,7,8,8a-octahydrocyclopenta[b]pyrrolo[2,3-d]pyridin-2-yl]pyridin-2-yl}-4,4-difluoro-2-(4-fluorophenyl)butanamide] | 3.1 nM
CC1CN(C)C(=O)c2c1[nH]c(-c1ccnc(NC(=O)Cc3ccc(F)cc3)c1)c2Nc1ccccc1 (single isomer, unassigned; (-)) [Example 7, (−)-N-{4-[3-anilino-5,7-dimethyl-4-oxo-4,5,6,7-tetrahydro-1H-pyrrolo[3,2-c]pyridin-2-yl]pyridin-2-yl}-2-(4-fluorophenyl)acetamide] | 11 nM
O=C1N[C@@H]2CCC[C@@H]2c2[nH]c(-c3ccnc(NC(=O)C(CC(F)F)c4ccc(F)cc4)c3)c(Nc3ccccc3)c21 (single isomer, unassigned; (-)) [Example 23, (−)-(2R or S)—N-{4-[cis-3-anilino-4-oxo-1,4,5,5a,6,7,8,8a-octahydrocyclopenta[b]pyrrolo[2,3-d]pyridin-2-yl]pyridin-2-yl}-4,4-difluoro-2-(4-fluorophenyl)butanamide] | 38 nM
O=C1N[C@@H]2CCC[C@@H]2c2[nH]c(-c3ccnc(NC(=O)C(CC(F)F)c4ccc(F)cc4)c3)c(Nc3ccccc3)c21 (single isomer, unassigned; (-)) [Example 24, (−)-(2R or S)—N-{4-[cis-3-anilino-4-oxo-1,4,5,5a,6,7,8,8a-octahydrocyclopenta[b]pyrrolo[2,3-d]pyridin-2-yl]pyridin-2-yl}-4,4-difluoro-2-(4-fluorophenyl)butanamide] | 24 nM
CCC1CNC(=O)c2c1[nH]c(-c1ccnc(NC(=O)C(CC(F)F)c3ccc(F)cc3)c1)c2Nc1ccccc1 (centres unmarked) [Example 4, N-{4-[3-anilino-7-ethyl-4-oxo-4,5,6,7-tetrahydro-1H-pyrrolo[3,2-c]pyridin-2-yl]pyridin-2-yl}-4,4-difluoro-2-(4-fluorophenyl)butanamide] | 16 nM
CN1CC(CC(F)(F)F)c2[nH]c(-c3ccnc(NC(=O)C(CC(F)F)c4ccc(F)cc4)c3)c(Nc3ccccc3)c2C1=O (centres unmarked) [Example 17, N-{4-[3-anilino-5-methyl-4-oxo-7-(2,2,2-trifluoroethyl)-4,5,6,7-tetrahydro-1H-pyrrolo[3,2-c]pyridin-2-yl]pyridin-2-yl}-4,4-difluoro-2-(4-fluorophenyl)butanamide] | 17 nM
Cn1cc(CC2CC2)c2[nH]c(-c3ccnc(NC(=O)Cc4ccc(F)cc4)c3)c(Nc3ccccc3)c2c1=O [Example 32, N-{4-[3-anilino-7-(cyclopropylmethyl)-5-methyl-4-oxo-4,5-dihydro-1H-pyrrolo[3,2-c]pyridin-2-yl]pyridin-2-yl}-2-(4-fluorophenyl)acetamide] | 36 nM
Cc1ccccc1Nc1c(-c2ccnc(NC(=O)Cc3ccc(F)cc3)c2)[nH]c2c(CC(F)(F)F)cn(C)c(=O)c12 [Example 33, 2-(4-fluorophenyl)-N-{4-[5-methyl-3-(2-methylanilino)-4-oxo-7-(2,2,2-trifluoroethyl)-4,5-dihydro-1H-pyrrolo[3,2-c]pyridin-2-yl]pyridin-2-yl}acetamide] | 6.2 nM
Cn1cc(CC(F)(F)F)c2[nH]c(-c3ccnc(NC(=O)Cc4ccc(F)cc4)c3)c(Nc3ccccc3)c2c1=O [Example 34, N-{4-[3-anilino-5-methyl-4-oxo-7-(2,2,2-trifluoroethyl)-4,5-dihydro-1H-pyrrolo[3,2-c]pyridin-2-yl]pyridin-2-yl}-2-(4-fluorophenyl)acetamide] | 9.1 nM
Cn1cc(CC(F)F)c2[nH]c(-c3ccnc(NC(=O)Cc4ccc(F)cc4)c3)c(Nc3ccccc3)c2c1=O [Example 45, N-{4-[3-anilino-7-(2,2-difluoroethyl)-5-methyl-4-oxo-4,5-dihydro-1H-pyrrolo[3,2-c]pyridin-2-yl]pyridin-2-yl}-2-(4-fluorophenyl)acetamide] | 9.7 nM
